Results from patent US20250066347A1, “SUBSTITUTED THIAZOLIDINEDIONE DERIVATIVE COMPOUND, AND PHARMACEUTICAL COMPOSITION FOR PREVENTING OR TREATING CANCER, COMPRISING SAME” (MEDIFIC, INC., priority 2021, published 2025).
Values joined by “and” are separate entries in the source; they are usually repeats but may differ in a detail not shown here. Equal entries are not always repeated. Where two headings read alike, the source gives them in different places.

Legend:
HOG-GSC cells = assay: Comparison of cell viability in brain tumor stem cell (MTS assay); type: cell-based; details: 72 hours, DMSO control = 1, value below 0.5 = viability decreased by 50% or more
Protocol: HOG-GSC cells which are brain tumor stem cells were treated with 11 compounds at 10 μM and DMSO as a control group, and the number of surviving cells after 72 hours was evaluated by MTS assay.
HOG-GSC which is a brain tumor stem cell was seeded on a 96-well plate at 5000 cells per well, and was cultured in an incubator (ThermoFisher) at 37° C. and 5% CO2 for 24 hours for stabilization of cells. Thereafter, it was treated with 11 compounds of the present invention at […] each, and treated with the same volume of DMSO as a control group as the volume of each compound. After treatment with the compound of the present invention and the control group, cells were cultured in an incubator at 37° C. and 5% CO2 for 72 hours. Thereafter, since there were many living cells in each well, cell viability was quantified using a cell viability assay kit (LPS solution) of which the color becomes darker with an increase in the number of cells. After treatment with the cell viability assay solution, a reaction was performed in an incubator at 37° C. and 5% CO2 for 3 hours to perform coloration, absorbance at 450 nm was measured using a microplate reader (BioTek), and an absorbance intensity of the control group was set to 1 and the absorbance of cells treated with each compound was normalized and is shown in FIG. 2.

HOG-GSC = assay: Cell viability analysis depending on the concentration of Compound 11; type: cell-based; details: 0.078-20 μM, 72 hours
Protocol: HOG-GSC which is a brain tumor stem cell was seeded on a 96-well plate at 5000 cells/well, treated with Compound 11 (Example 11) at concentrations of 20 μM, 10 μM, 5 μM, 2.5 μM, 1.25 μM, 0.625 μM, 0.312 μM, 0.156 μM, and 0.078 μM repeatedly 3 times after 24 hours, and treated with the same volume of DMSO as a control group repeatedly 3 times. After the treatment, cells were cultured for 72 hours in an incubator (ThermoFisher) at 37° C., 5% Co2. Thereafter, since there were many living cells in each well, the cell viability depending on the concentration of Compound 11 (Example 11) was compared using a cell viability assay kit (LPS solution) of which the color becomes darker with an increase in the number of cells. Further, absorbance at 450 nm was measured using a microplate reader (BioTek), and absorbance at each concentration was normalized based on the absorbance intensity of the control group of 1 and is shown in FIG. 4.

[1] = In vivo PK test, drug concentration in plasma after oral or intravenous administration; details: mouse
Protocol: • Experimental Drug: Compound 11 • Excipient: 10% DMSO, 75% PEG400, 15% saline 1.2. Experimental system • mouse, CRljOri:CD1(ICR), SPF 6 weeks old (7 weeks old at the time of administration) 1.3. Administration route • oral administration (PO), intravenous administration (IV) 1.4. Administration method and number of administration
After obtaining the mouse, the mouse was acclimatized for 5 days, and used in the experiment. An administration dose was 25 mg/kg by oral administration and 5 mg/kg by intravenous administration. A dosage for each individual was calculated based on the weight after fasting (on the day of administration), and the drug was orally administered once to an oral administration (PO) group using a disposable syringe (1 mL) with a zonde for oral administration attached, and intravenously administered to the tail vein of an intravenous administration (IV) group using a disposable syringe (1 mL).
About 0.3 mL of blood was collected from a jugular vein with a 1 mL syringe (25G) treated with 3.8% sodium citrate (about 30˜40 μl), placed in one microtube (QSP, 1.5 mL), and centrifuged at 12,000 RPM/3 min to collect plasma. The plasma was frozen and stored at −80° C. until analysis, and all animals of a pharmacokinetic experiment group were euthanized after completing the blood collection.
580 μl of acetonitrile (including internal standard) was added to 20 μl of plasma/tissue, and centrifugation was performed at 4° C. at 15,000 rpm for 5 minutes with vortexing. A supernatant obtained after the centrifugation was analyzed with LC-MS/MS.
PK parameter was calculated as a non-compartmental analysis model, using a phoenix WinNonlin 6.4 version (Pharsight, USA) program.

[2] = CRljOri:CD1(ICR), 25 mg/kg oral administration, plasma

## CC(C)(C)c1ccc(-c2cc(/C=C3\SC(=O)NC3=O)ccn2)cc1 [Compound 11, (Z)-5-((2-(4-(tert-butyl)phenyl)pyridin-4-yl)methylene)thiazolidine-2,4-dione]
HOG-GSC cells
  cell viability inhibition effect (normalized MTS value): significant cell viability inhibition effect
HOG-GSC
  cell viability of HOG-GSC compared with DMSO control: significantly decreased
  concentration dependence of HOG-GSC cell viability: decreased in proportion to the concentration
[1]; CRljOri:CD1(ICR), plasma, iv, 5 mg/kg, intravenous 5 mg/kg, 0.08 hr, read-out: Drug concentration in plasma, Average
  concentration at 0.08 h: 2560 ng/mL
[1]; CRljOri:CD1(ICR), plasma, iv, 5 mg/kg, intravenous 5 mg/kg, 0.08 hr, read-out: Drug concentration in plasma, Individual
  concentration at 0.08 h: 2820 ng/mL
[1]; CRljOri:CD1(ICR), plasma, iv, 5 mg/kg, intravenous 5 mg/kg, 0.25 hr, read-out: Drug concentration in plasma, Average
  concentration at 0.25 h: 2540 ng/mL
[1]; CRljOri:CD1(ICR), plasma, iv, 5 mg/kg, intravenous 5 mg/kg, 0.25 hr, read-out: Drug concentration in plasma, Individual
  concentration at 0.25 h: 2600 ng/mL
[1]; CRljOri:CD1(ICR), plasma, iv, 5 mg/kg, intravenous 5 mg/kg, 0.5 hr, read-out: Drug concentration in plasma, Average
  concentration at 0.5 h: 2260 ng/mL
[1]; CRljOri:CD1(ICR), plasma, iv, 5 mg/kg, intravenous 5 mg/kg, 0.5 hr, read-out: Drug concentration in plasma, Individual
  concentration at 0.5 h: 2790 ng/mL
[1]; CRljOri:CD1(ICR), plasma, iv, 5 mg/kg, intravenous 5 mg/kg, 1 hr, read-out: Drug concentration in plasma, Average
  concentration at 1 h: 2100 ng/mL
[1]; CRljOri:CD1(ICR), plasma, iv, 5 mg/kg, intravenous 5 mg/kg, 1 hr, read-out: Drug concentration in plasma, Individual
  concentration at 1 h: 2590 ng/mL
[1]; CRljOri:CD1(ICR), plasma, iv, 5 mg/kg, intravenous 5 mg/kg, 2 hr, read-out: Drug concentration in plasma, Average
  concentration at 2 hr: 1570 ng/mL
[1]; CRljOri:CD1(ICR), plasma, iv, 5 mg/kg, intravenous 5 mg/kg, 2 hr, read-out: Drug concentration in plasma, Individual
  concentration at 2 hr: 1130 ng/mL
[1]; CRljOri:CD1(ICR), plasma, iv, 5 mg/kg, intravenous 5 mg/kg, 4 hr, read-out: Drug concentration in plasma, Average
  concentration at 4 h: 1280 ng/mL
[1]; CRljOri:CD1(ICR), plasma, iv, 5 mg/kg, intravenous 5 mg/kg, 4 hr, read-out: Drug concentration in plasma, Individual
  concentration at 4 h: 1050 ng/mL
[1]; CRljOri:CD1(ICR), plasma, iv, 5 mg/kg, intravenous 5 mg/kg, 6 hr
  concentration at 6 h: 652 ng/mL
[1]; CRljOri:CD1(ICR), plasma, iv, 5 mg/kg, intravenous 5 mg/kg, 8 hr, read-out: Drug concentration in plasma, Average
  concentration at 8 h: 575 ng/mL
[1]; CRljOri:CD1(ICR), plasma, iv, 5 mg/kg, intravenous 5 mg/kg, 8 hr, read-out: Drug concentration in plasma, Individual
  concentration at 8 h: 424 ng/mL
[1]; CRljOri:CD1(ICR), plasma, iv, 5 mg/kg, intravenous 5 mg/kg, 24 hr, BQL = <1 ng/ml, ND = not detectable, read-out: Drug concentration in plasma, Individual
  concentration at 24 h: 1.9 ng/mL
[1]; CRljOri:CD1(ICR), plasma, iv, 5 mg/kg, intravenous 5 mg/kg, 24 hr, read-out: Drug concentration in plasma, Average
  concentration at 24 h: 1.8 ng/mL
[1]; CRljOri:CD1(ICR), plasma, po, 25 mg/kg, oral 25 mg/kg, 0.25 hr, read-out: Drug concentration in plasma, Average
  concentration at 0.25 h: 2910 ng/mL
[1]; CRljOri:CD1(ICR), plasma, po, 25 mg/kg, oral 25 mg/kg, 0.5 hr, read-out: Drug concentration in plasma, Average
  concentration at 0.5 h: 4420 ng/mL
[1]; CRljOri:CD1(ICR), plasma, po, 25 mg/kg, oral 25 mg/kg, 1 hr, read-out: Drug concentration in plasma, Average
  concentration at 1 h: 3770 ng/mL
[1]; CRljOri:CD1(ICR), plasma, po, 25 mg/kg, oral 25 mg/kg, 2 hr
  concentration at 2 h: 3870 ng/mL
[1]; CRljOri:CD1(ICR), plasma, po, 25 mg/kg, oral 25 mg/kg, 4 hr, read-out: Drug concentration in plasma, Average
  concentration at 4 h: 3540 ng/mL
[1]; CRljOri:CD1(ICR), plasma, po, 25 mg/kg, oral 25 mg/kg, 6 hr
  concentration at 6 h: 5440 ng/mL
[1]; CRljOri:CD1(ICR), plasma, po, 25 mg/kg, oral 25 mg/kg, 8 hr, read-out: Drug concentration in plasma, Average
  concentration at 8 h: 5020 ng/mL
[1]; CRljOri:CD1(ICR), plasma, po, 25 mg/kg, oral 25 mg/kg, 8 hr, read-out: Drug concentration in plasma, Individual
  concentration at 8 h: 3930 ng/mL
[1]; CRljOri:CD1(ICR), plasma, po, 25 mg/kg, oral 25 mg/kg, 24 hr, BQL = <1 ng/ml, read-out: Drug concentration in plasma, Individual
  concentration at 24 h: 4.1 ng/mL
[1]; CRljOri:CD1(ICR), plasma, po, 25 mg/kg, oral 25 mg/kg, 24 hr, read-out: Drug concentration in plasma, Average
  concentration at 24 h: 3.6 ng/mL
[1]; CRljOri:CD1(ICR), plasma, 25 mg/kg oral compared with 5 mg/kg intravenous, read-out: bioavailability (BA)
  bioavailability: 62.4%
[1]; [2]
  AUC(0-t): 39400 ng·h/mL
  Cmax: 5040 ng/mL
  Tmax: 1.6 h
  half-life: 3.9 h
[1]; intravenous 5 mg/kg, 0.08 hr, 5 mg/kg
  Drug concentration in plasma, Individual: 2800.0 ng/mL and 1900.0 ng/mL and 2700.0 ng/mL
[1]; intravenous 5 mg/kg, 0.25 hr, 5 mg/kg
  Drug concentration in plasma, Individual: 2240.0 ng/mL and 2890.0 ng/mL and 2430.0 ng/mL
[1]; intravenous 5 mg/kg, 0.5 hr, 5 mg/kg
  Drug concentration in plasma, Individual: 1890.0 ng/mL and 2360.0 ng/mL and 2000.0 ng/mL
[1]; intravenous 5 mg/kg, 1 hr, 5 mg/kg
  Drug concentration in plasma, Individual: 1780.0 ng/mL and 2380.0 ng/mL and 1630.0 ng/mL
[1]; intravenous 5 mg/kg, 2 hr, 5 mg/kg
  Drug concentration in plasma, Individual: 1420.0 ng/mL and 2240.0 ng/mL and 1480.0 ng/mL
[1]; intravenous 5 mg/kg, 4 hr, 5 mg/kg
  Drug concentration in plasma, Individual: 1410.0 ng/mL and 1400.0 ng/mL and 1260.0 ng/mL
[1]; intravenous 5 mg/kg, 6 hr, 5 mg/kg
  Drug concentration in plasma, Individual: 476.0 ng/mL and 491.0 ng/mL and 1080.0 ng/mL and 561.0 ng/mL
[1]; intravenous 5 mg/kg, 8 hr, 5 mg/kg
  Drug concentration in plasma, Individual: 614.0 ng/mL and 618.0 ng/mL and 644.0 ng/mL
[1]; intravenous 5 mg/kg, 24 hr, BQL = <1 ng/ml, ND = not detectable, 5 mg/kg
  Drug concentration in plasma, Individual: 1.7 ng/ml and BQL
[1]; oral 25 mg/kg, 0.25 hr, 25 mg/kg
  Drug concentration in plasma, Individual: 3210.0 ng/mL and 2230.0 ng/mL and 4300.0 ng/mL and 2000.0 ng/mL
[1]; oral 25 mg/kg, 0.5 hr, 25 mg/kg
  Drug concentration in plasma, Individual: 3590.0 ng/mL and 2340.0 ng/mL and 4750.0 ng/mL and 7010.0 ng/mL
[1]; oral 25 mg/kg, 1 hr, 25 mg/kg
  Drug concentration in plasma, Individual: 4140.0 ng/mL and 2380.0 ng/mL and 2070.0 ng/mL and 6490.0 ng/mL
[1]; oral 25 mg/kg, 2 hr, 25 mg/kg
  Drug concentration in plasma, Individual: 3270.0 ng/mL and 2030.0 ng/mL and 4100.0 ng/mL and 6070.0 ng/mL
[1]; oral 25 mg/kg, 4 hr, 25 mg/kg
  Drug concentration in plasma, Individual: 2020.0 ng/mL and 4420.0 ng/mL and 2930.0 ng/mL and 4810.0 ng/mL
[1]; oral 25 mg/kg, 6 hr, 25 mg/kg
  Drug concentration in plasma, Individual: 7260.0 ng/mL and 8180.0 ng/mL and 2630.0 ng/mL and 3680.0 ng/mL
[1]; oral 25 mg/kg, 8 hr, 25 mg/kg
  Drug concentration in plasma, Individual: 4120.0 ng/mL and 4850.0 ng/mL and 7180.0 ng/mL
[1]; oral 25 mg/kg, 24 hr, BQL = <1 ng/ml, 25 mg/kg
  Drug concentration in plasma, Individual: BQL and 2.5 ng/ml and 4.1 ng/ml
